Measured values: patent publication US11773051B2, “S-enantiomers of beta-hydroxybutyrate and butanediol and methods for using same” (Buck Institute for Research on Aging, priority 2017, dated 2023)
pIC50: −log10 of the molar value.

Tests used:
[1] = test system: T1, histone deacetylases (HDAC); assay: in vitro HDAC assay, commercial assay kit Fluor de Lys Green from Enzo; format: biochemical; settings: sodium salt
T1 construct: other: sodium salt; same assay as S-BHB
Description: (§1) The activity of S-BHB and R-BHB enantiomers in inhibiting histone deacetylases was tested.
(§2) This is an in vitro HDAC assay performed using the sodium salt of S-BHB and R-BHB with a commercial assay kit, Fluor de Lys Green from Enzo.
(§3) Without being bound to a particular theory, it is believed the R-BHB might be being metabolized more rapidly than the S-BHB resulting in the diminished maximum inhibition.

[2] = test system: histone deacetylases (HDAC); assay: as above; format: biochemical; settings: comparison with literature value
Description: as §1, §2, §3

inhibition of deacetylase activity (result in words) ([1]; FIG. 2) | pIC50 ([1]; FIG. 2, read-out: HDAC activity inhibition IC50) | SMILES | maximum inhibition of HDAC activity ([1]; same assay as S-BHB, partial inhibition) | potency for HDAC inhibition relative to potency of R-BHB in a different, previously published assay (Shimazu et al. 2013) [2]
– | – | C[C@@H](O)CC(=O)O [R-BHB, reference compound] | about 50% | –
dose-dependent inhibition | 2.14 | C[C@H](O)CC(=O)O [S-BHB, S-beta-hydroxybutyrate] | – | ≤ 2 fold
